In ChEMBL document CHEMBL1131368, “Synthesis of novel substituted pyridines as inhibitors of endothelin converting enzyme-1 (ECE-1)” (Bioorg Med Chem Lett, 1998):

Each compound was assayed against T1, Endothelin-converting enzyme 1 (Homo sapiens, UniProt P42892) (assay: Inhibition of human recombinant Endothelin-converting enzyme 1.).
T1 sequence (P42892 whole entry): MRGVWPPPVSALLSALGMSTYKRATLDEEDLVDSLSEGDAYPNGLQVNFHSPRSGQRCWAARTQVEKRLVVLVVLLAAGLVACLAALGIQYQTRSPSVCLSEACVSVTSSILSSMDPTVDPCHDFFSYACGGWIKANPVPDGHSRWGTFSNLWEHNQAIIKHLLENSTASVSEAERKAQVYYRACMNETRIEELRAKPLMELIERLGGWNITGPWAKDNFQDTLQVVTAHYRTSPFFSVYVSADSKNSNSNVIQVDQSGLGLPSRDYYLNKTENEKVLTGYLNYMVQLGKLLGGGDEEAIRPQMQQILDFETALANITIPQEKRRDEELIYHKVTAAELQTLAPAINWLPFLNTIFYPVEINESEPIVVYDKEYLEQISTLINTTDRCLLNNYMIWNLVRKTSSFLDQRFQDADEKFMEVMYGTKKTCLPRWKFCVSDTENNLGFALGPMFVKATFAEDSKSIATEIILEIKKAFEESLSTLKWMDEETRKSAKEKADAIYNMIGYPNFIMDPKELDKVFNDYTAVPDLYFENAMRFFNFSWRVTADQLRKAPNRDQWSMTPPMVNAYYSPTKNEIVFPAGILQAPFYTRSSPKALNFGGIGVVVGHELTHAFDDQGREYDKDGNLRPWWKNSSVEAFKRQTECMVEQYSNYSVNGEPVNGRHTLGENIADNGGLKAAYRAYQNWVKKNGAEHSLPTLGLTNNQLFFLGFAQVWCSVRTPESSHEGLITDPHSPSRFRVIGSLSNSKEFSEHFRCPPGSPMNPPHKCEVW

Row | IC50 [nM] | Structure (SMILES)
1 | 1400 | COc1cc(C(=O)O)nc(-c2csc(C)n2)c1OC
2 | 10000 | COc1ccc(C(=O)O)nc1-c1csc(-c2ccc(-c3ccccc3)cc2)n1
3 | 24000 | COc1ccc(C(=O)O)nc1-c1nccs1
4 | > 50000 | COc1cc(C(=O)O)nc(-c2ccsc2)c1OC
5 | > 50000 | COc1cc(C(=O)O)nc(-c2cccn2C)c1OC
6 | 1500 | COc1ccc(C(=O)O)nc1-c1csc(-c2ccc3ccccc3c2)n1
7 | 1300 | COc1ccc(C(=O)O)nc1-c1csc(-c2ccccc2)n1
8 | 2600 | CNc1nc(-c2nc(C(=O)O)cc(OC)c2OC)cs1
9 | 860 | COc1ccc(C(=O)O)nc1-c1csc(Cc2ccccc2)n1
10 | 1400 | COc1ccc(C(=O)O)nc1-c1csc(C)n1
11 | > 50000 | COc1cc(C(=O)O)nc(-c2ccoc2)c1OC
12 | 10000 | Cc1nc(-c2cccc(C(=O)O)n2)cs1
13 | 4300 | COc1cc(C(=O)O)nc(-c2cscn2)c1OC
14 | 980 | COc1ccc(C(=O)O)nc1-c1csc(CCc2ccccc2)n1
15 | 2400 | COc1ccc(C(=O)O)nc1-c1c[nH]cn1
